Holding throughout (assay): growth of human tumour cells (NCI), 48 h
For assay [1], the system named is TK-10.
Assay [2] has as its system OVCAR-4.
The test system of assay [3] is OVCAR-5.
Assay [4] relates to Malme-3M.
The test system of assay [5] is A549.
Assay [6] deals with U-251.
For assay [7], the system named is LOX IMVI.
Assay [8] has as its system MOLT-4.
The subject of assay [9] is NCI-H460.
Assay [10] relates to NCI-H23.
For assay [11], the system named is HOP-62.
Assay [12] concerns 786-0.
The test system of assay [13] is CAKI-1.
Assay [14] has as its system EKVX.
Assay [15] has as its system SK-MEL-28.
The test system of assay [16] is SK-MEL-2.
Assay [17] has as its system KM12.

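The compound was tested at five concentrations on cells cultured in 96-well plates, with a 48-hour exposure period. Here, GI50 denotes the concentration required for 50% inhibition of growth.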 Calls of active or inactive are those of the source. Rule as the data show it: active = GI50 up to about 1.1 µM and inactive = higher.

Regarding `OCCSCC/C(=N\N=C(/CCSCCO)c1ccccc1)c1ccccc1`, the GI50 was > 100 µM (inactive) in assay [1]; 61.4 µM (inactive) in [2]; > 100 µM (inactive) in [3]; > 100 µM (inactive) in assay [4]; > 100 µM (inactive) in assay [5]; > 100 µM (inactive) in assay [6]. Also, the GI50 is 93.8 µM (inactive) in assay [7]; 77.4 µM (inactive) in [8]; 69.5 µM (inactive) in assay [9]; > 100 µM (inactive) in assay [10]; > 100 µM (inactive) in assay [11]; 46.2 µM (inactive) in assay [12]. Further, the GI50 is 32.1 µM (inactive) in assay [13]; > 100 µM (inactive) in assay [14]; > 100 µM (inactive) in [15]; 84.7 µM (inactive) in assay [16]; 66.8 µM (inactive) in assay [17].

Take `C/C(=N/NC(N)=S)C(CN(C)C)C(C1=C(O)c2ccccc2OC1)c1ccccc1` (centres undefined): the GI50 in assay [1], in assay [2], in assay [3], in assay [4], in [5] and in assay [6] was > 100 µM (inactive) each time. For the same compound, the GI50 in [7], in [8], in [9], in [10], in assay [11] and in assay [12] was > 100 µM (inactive) throughout. In addition, the GI50 in assay [13], in [14], in assay [15], in [16] and in assay [17] was > 100 µM (inactive) throughout.

On to `COC(=O)/C(C#N)=C1\CCC(O)N1` (centres undefined), for which the GI50 in assay [1], in [2], in [3], in assay [4], in assay [5] and in [6] was > 100 µM (inactive) throughout. For the same compound, the GI50 in assay [7], in assay [8], in [9], in assay [10], in [11] and in assay [12] was > 100 µM (inactive) each time. Further, the GI50 in [13], in assay [14], in [15], in assay [16] and in assay [17] was > 100 µM (inactive) throughout.

As for `Cc1nnc2n1N=C(CC(=O)c1ccc(O)cc1O)CN2N`, the GI50 in assay [1], in [2], in [3], in assay [4], in [5] and in assay [6] was > 100 µM (inactive) each time. The GI50 in assay [7] is 68.9 µM (inactive); in assay [9], 38.7 µM (inactive); in assay [10], > 100 µM (inactive); in [11], > 100 µM (inactive); in [12], > 100 µM (inactive); in assay [13], > 100 µM (inactive). Also, the GI50 in assay [14], in [15], in assay [16] and in assay [17] was > 100 µM (inactive) each time.

As to `COc1ccc(C(=O)Nc2ccccc2C#N)cc1`, the GI50 in [1], in assay [2], in assay [3], in assay [4], in assay [5] and in assay [6] was > 100 µM (inactive) each time. The GI50 in assay [7], in assay [9], in [10], in [11], in assay [12] and in assay [13] was > 100 µM (inactive) each time. The GI50 in assay [14], in assay [15], in [16] and in [17] was > 100 µM (inactive) in each case.

Take `COc1cc2ccnc([C@@H](OC(=O)c3ccccc3)c3ccc(OC)c(OC)c3OC)c2cc1OC`: the GI50 was 75.5 µM (inactive) in assay [1]; 31 µM (inactive) in [2]; 23.8 µM (inactive) in [3]; 36.2 µM (inactive) in [4]; 47.1 µM (inactive) in [5]; 37.5 µM (inactive) in assay [6]. Further, the GI50 in assay [7] is 39.1 µM (inactive); in [8] it was 41.6 µM (inactive); in [9] it was 33.6 µM (inactive); in assay [10] it was 40.6 µM (inactive); in [12], 35.6 µM (inactive); in assay [13], 30.3 µM (inactive). The GI50 in [14] is > 100 µM (inactive); in assay [15], 59.6 µM (inactive); in assay [16], 60.4 µM (inactive); in assay [17], 36.9 µM (inactive).

In the case of `C=CCN1C(=O)C(=O)N(CC=C)C(=O)C1=O`, the GI50 in assay [1], in [2], in assay [3], in assay [4], in [5] and in assay [6] was > 100 µM (inactive) in each case. The GI50 in assay [7], in assay [8], in assay [9], in assay [10], in assay [11] and in assay [12] was > 100 µM (inactive) each time. Further, the GI50 in assay [13], in [14] and in assay [17] was > 100 µM (inactive) in each case.

For the compound `N=C(N)Cn1cnc2ccccc21`, the GI50 in [1], in [3], in assay [4], in assay [5], in [6] and in assay [7] was > 100 µM (inactive) in each case. Further, the GI50 in assay [8], in [9], in assay [10], in assay [11], in [12] and in assay [14] was > 100 µM (inactive) throughout. The GI50 in [15], in assay [16] and in [17] was > 100 µM (inactive) throughout.

In the case of `Cc1c2c(ccc3ccccc32)c[n+]2ccccc12`, the GI50 was > 100 µM (inactive) in [1]; 12 µM (inactive) in [2]; 55.7 µM (inactive) in [3]; 2.25 µM (inactive) in [4]; 1.44 µM (inactive) in assay [5]; 2.03 µM (inactive) in [6]. The GI50 in assay [8] is 6.59 µM (inactive); in [9], > 10 µM (inactive); in assay [10], 4.15 µM (inactive); in assay [11], 3.23 µM (inactive); in [12] it was 10.1 µM (inactive); in assay [13], > 100 µM (inactive). For the same compound, the GI50 in [15] was 15.7 µM (inactive); in [16], 15.8 µM (inactive); in assay [17] it was 1.09 µM (active).

Values taken from ChEMBL document CHEMBL1201862, “PubChem BioAssay data set” (2004).
